# Experimental data as given in US20240287080A1 (IDEAYA Biosciences Inc., priority 2021, published 2024).
# Target: T1, Pol theta (1-899) (Homo sapiens, UniProt O75417)
# T1 construct: Pol theta (1-899) (5 nM) in assay buffer
# Experiment: Pol theta ATPase activity, NADH oxidation-coupled enzymatic assay (ATPase NADH coupling: Standard Screening: hPolQ)
# Format: biochemical
# Details: Pol theta (1-899) 5 nM, NADH oxidation-coupled ATPase assay; compounds of Table 3
# In short: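 NADH-coupled ATPase readout: 5 nM Pol theta (1-899) preincubated 15 min with 10-point compound series in Tris pH 7.80, KCl, MgCl2, DTT, BSA, Tween, glycerol, then 100 μM ATP, 300 nM 50-mer poly-dT ssDNA, NADH, PEP, LDH and PK added (stock levels). A340 followed 60 min; slopes fit four-parameter for IC50.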
# T1 sequence (O75417 1-899): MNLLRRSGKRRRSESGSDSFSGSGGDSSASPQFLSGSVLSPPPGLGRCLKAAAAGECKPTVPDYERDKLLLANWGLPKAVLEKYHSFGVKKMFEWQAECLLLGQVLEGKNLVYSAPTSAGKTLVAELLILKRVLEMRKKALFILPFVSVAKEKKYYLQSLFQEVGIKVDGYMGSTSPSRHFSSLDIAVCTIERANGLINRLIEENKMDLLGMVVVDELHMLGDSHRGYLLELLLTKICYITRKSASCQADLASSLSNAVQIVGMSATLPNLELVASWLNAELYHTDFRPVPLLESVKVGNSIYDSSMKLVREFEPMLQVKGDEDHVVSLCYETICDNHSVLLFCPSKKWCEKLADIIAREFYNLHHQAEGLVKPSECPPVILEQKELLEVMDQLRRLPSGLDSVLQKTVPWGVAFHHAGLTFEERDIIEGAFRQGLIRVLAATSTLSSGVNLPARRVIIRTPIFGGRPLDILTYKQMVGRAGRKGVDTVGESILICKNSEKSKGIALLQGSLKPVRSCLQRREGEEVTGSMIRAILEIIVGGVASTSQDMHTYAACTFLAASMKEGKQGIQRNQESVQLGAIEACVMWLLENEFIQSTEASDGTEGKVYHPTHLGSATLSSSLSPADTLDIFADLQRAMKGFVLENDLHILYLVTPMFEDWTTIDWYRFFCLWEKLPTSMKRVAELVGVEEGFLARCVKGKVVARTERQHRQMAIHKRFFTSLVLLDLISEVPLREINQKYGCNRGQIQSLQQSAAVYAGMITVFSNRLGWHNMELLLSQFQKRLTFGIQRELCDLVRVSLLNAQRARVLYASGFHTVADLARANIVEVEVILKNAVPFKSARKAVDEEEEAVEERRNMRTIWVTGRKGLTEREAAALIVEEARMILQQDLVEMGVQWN
row,Compound,IC50
1,"COc1nnc(NC(=O)c2cnc(C)cc2-c2ccc(NS(C)(=O)=O)cc2)s1 [Example 387, 4-(4-methanesulfonamidophenyl)-N-(5-methoxy-1,3,4-thiadiazol-2-yl)-6-methylpyridine-3-carboxamide]",1000 to 10000 nM
2,"COc1nnc(NC(=O)c2cc(N(C)C)ncc2-c2cc(Cl)ncc2OC)s1 [Example 311, 2′-chloro-6-(dimethylamino)-5′-methoxy-N-(5-methoxy-1,3,4-thiadiazol-2-yl)-[3,4′-bipyridine]-4-carboxamide]",200 to 500 nM
3,"COc1nnc(NC(=O)c2cnc(C)cc2-c2ccccc2)s1 [Example 329, N-(5-methoxy-1,3,4-thiadiazol-2-yl)-6-methyl-4-phenylpyridine-3-carboxamide]",1000 to 10000 nM
4,"COc1nnc(NC(=O)c2cc(N3CCC3)ncc2-c2cc(Cl)ncc2OC)s1 [Example 323, 6-(azetidin-1-yl)-2′-chloro-5′-methoxy-N-(5-methoxy-1,3,4-thiadiazol-2-yl)-[3,4′-bipyridine]-4-carboxamide]",≤ 200 nM
5,"CCc1cccc(-c2cc(C)ncc2C(=O)Nc2nnc(OC)s2)c1 [Example 383, 4-(3-ethylphenyl)-N-(5-methoxy-1,3,4-thiadiazol-2-yl)-6-methylpyridine-3-carboxamide]",500 to 1000 nM
6,"COc1nnc(NC(=O)c2cnc(C)cc2-c2ccc(F)cc2C)s1 [Example 428, 4-(4-fluoro-2-methylphenyl)-N-(5-methoxy-1,3,4-thiadiazol-2-yl)-6-methylpyridine-3-carboxamide]",500 to 1000 nM
7,"COc1nnc(NC(=O)c2cc(OC(C)C)ncc2-c2cc(Cl)ncc2OC)s1 [Example 273, 2′-chloro-6-isopropoxy-5′-methoxy-N-(5-methoxy-1,3,4-thiadiazol-2-yl)-[3,4′-bipyridine]-4-carboxamide]",200 to 500 nM
8,"COc1nnc(NC(=O)c2cnc(C)cc2-c2csc3cnccc23)s1 [Example 425, N-(5-methoxy-1,3,4-thiadiazol-2-yl)-6-methyl-4-{thieno[2,3-c]pyridin-3-yl}pyridine-3-carboxamide]",500 to 1000 nM
9,"COc1cnc(C)c(F)c1-c1cc(C)ncc1C(=O)Nc1nnc(O[C@@H]2C[C@@H]3C[C@H]2C[C@H]3O)s1 (single isomer, unassigned) [Example 254]",≤ 200 nM
10,"COc1cnc(C)cc1-c1cc(C)ncc1C(=O)Nc1nnc(OC(CC(N)=O)C(F)(F)F)s1 (centres unmarked) [Example 324, N-(5-((4-amino-1,1,1-trifluoro-4-oxobutan-2-yl)oxy)-1,3,4-thiadiazol-2-yl)-5′-methoxy-2′,6-dimethyl-[4,4′-bipyridine]-3-carboxamide]",≤ 200 nM
11,"CNS(=O)(=O)c1cccc(-c2cc(C)ncc2C(=O)Nc2nnc(OC)s2)c1 [Example 401, N-(5-methoxy-1,3,4-thiadiazol-2-yl)-6-methyl-4-[3-(methylsulfamoyl)phenyl]pyridine-3-carboxamide]",1000 to 10000 nM
12,"COc1nnc(NC(=O)c2cnc(C)cc2-c2cnc(C#N)cc2C)s1 [Example 413, 6-cyano-N-(5-methoxy-1,3,4-thiadiazol-2-yl)-4,6′-dimethyl-[3,4′-bipyridine]-3′-carboxamide]",1000 to 10000 nM
13,"COc1nnc(NC(=O)c2cnc(C)cc2-c2cccc(S(C)(=O)=O)c2)s1 [Example 397, 4-(3-methanesulfonylphenyl)-N-(5-methoxy-1,3,4-thiadiazol-2-yl)-6-methylpyridine-3-carboxamide]",500 to 1000 nM
14,"COc1nnc(NC(=O)c2cnc(C)cc2-c2cccc3nn(C)cc23)s1 [Example 489, N-(5-methoxy-1,3,4-thiadiazol-2-yl)-6-methyl-4-(2-methyl-2H-indazol-4-yl)pyridine-3-carboxamide]",1000 to 10000 nM

# Continued, values first:
row,IC50,Compound
1,≤ 200 nM,"COc1cnc(Br)cc1-c1cc(C)ncc1C(=O)Nc1nnc(O[C@@H]2CCC[C@@H](O)C2)s1 [Example 284, 2′-bromo-N-(5-(((1R,3R)-3-hydroxycyclohexyl)oxy)-1,3,4-thiadiazol-2-yl)-5′-methoxy-6-methyl-[4,4′-bipyridine]-3-carboxamide]"
2,≤ 200 nM,"COc1cnc(Br)cc1-c1cc(C)ncc1C(=O)Nc1nnc(O[C@H]2CC[C@H](CO)CC2)s1 [Example 315, 2′-bromo-N-(5-(((1r,4r)-4-(hydroxymethyl)cyclohexyl)oxy)-1,3,4-thiadiazol-2-yl)-5′-methoxy-6-methyl-[4,4′-bipyridine]-3-carboxamide]"
3,≤ 200 nM,"COc1nnc(NC(=O)c2cnc(C)cc2-c2cc(Cl)c([S@@+]([O-])C3CC3)cc2OC)s1 (single isomer, unassigned) [Example 318]"
4,≤ 200 nM,"Cc1cc(-c2cc(Cl)ncc2OC(F)F)c(C(=O)Nc2nnc(O[C@@H]3CCC[C@@H](O)C3)s2)cn1 (single isomer, unassigned) [Example 251]"

# Same assay, conditions: Table 4; Pol theta (1-899) 5 nM, ATP, dT50 ssDNA
row,Compound,IC50
1,"COc1cnc(Cl)cc1-c1cc(C)ncc1C(=O)Nc1nnc(OCC(F)F)s1 [Example 18, 2′-chloro-N-(5-(2,2-difluoroethoxy)-1,3,4-thiadiazol-2-yl)-5′-methoxy-6-methyl-(4,4′-bipyridine)-3-carboxamide]",≤ 200 nM
2,"COc1nnc(NC(=O)c2cnc(C)cc2-c2c(Cl)cccc2OC)s1 [Example 35, 4-(2-chloro-6-methoxyphenyl)-N-(5-methoxy-1,3,4-thiadiazol-2-yl)-6-methylnicotinamide]",200 to 500 nM
3,"COc1cnc(Cl)cc1-c1cc(C)ncc1C(=O)Nc1nnc(OCC(F)(F)F)s1 [Example 29, 2′-chloro-5′-methoxy-6-methyl-N-(5-(2,2,2-trifluoroethoxy)-1,3,4-thiadiazol-2-yl)-(4,4′-bipyridine)-3-carboxamide]",≤ 200 nM
4,"COc1cnc(Cl)cc1-c1cc(C)ncc1C(=O)Nc1nnc(OC2COC2)s1 [Example 13, 2′-chloro-5′-methoxy-6-methyl-N-(5-(oxetan-3-yloxy)-1,3,4-thiadiazol-2-yl)-(4,4′-bipyridine)-3-carboxamide]",≤ 200 nM

# Same assay, conditions: Table 5; Pol theta (1-899) 5 nM, ATP, dT50 ssDNA
row,Compound,IC50
1,"COc1cnc(Cl)cc1-c1cc(C)ncc1C(=O)Nc1nnc(OC2CC(C)(O)C2)s1 (mixture of isomers) [Example 176, 2′-chloro-N-(5-(3-hydroxy-3-methylcyclobutoxy)-1,3,4-thiadiazol-2-yl)-5′-methoxy-6-methyl-(4,4′-bipyridine)-3-carboxamide]",≤ 200 nM
2,"COc1cnc(Br)c(F)c1-c1cc(C)ncc1C(=O)Nc1nnc(O[C@@H]2CCOC2)s1 [Example 201, 2′-bromo-3′-fluoro-5′-methoxy-6-methyl-N-(5-(((R)-tetrahydrofuran-3-yl)oxy)-1,3,4-thiadiazol-2-yl)-(4,4′-bipyridine)-3-carboxamide]",≤ 200 nM

# Continued, values first:
row,IC50,Compound
1,≤ 200 nM,"Cc1cc(-c2cc(Cl)ncc2OC(F)F)c(C(=O)Nc2nnc(O[C@H]3CC[C@](C)(O)CC3)s2)cn1 (single isomer, unassigned) [Example 223, 2′-chloro-5′-(difluoromethoxy)-N-(5-(((1r,4r)-4-hydroxy-4-methylcyclohexyl)oxy)-1,3,4-thiadiazol-2-yl)-6-methyl-(4,4′-bipyridine)-3-carboxamide]"
2,≤ 200 nM,"COc1cnc(Cl)cc1-c1cc(C)ncc1C(=O)Nc1nnc(O[C@H]2CCO[C@@H]2C)s1 (racemic) [Example 93, rac-2′-Chloro-5′-methoxy-6-methyl-N-(5-(((2R,3S)-2-methyltetrahydrofuran-3-yl)oxy)-1,3,4-thiadiazol-2-yl)-(4,4′-bipyridine)-3-carboxamide]"
3,≤ 200 nM,"COc1cnc(Cl)cc1-c1cc(C)ncc1C(=O)Nc1nnc(O[C@@H]2CC[C@H]2O)s1 (single isomer, unassigned) [Example 118]"
4,≤ 200 nM,"COc1cnc(Cl)cc1-c1cc(C)ncc1C(=O)Nc1nnc(O[C@H]2CO[C@@H](C)C2)s1 (single isomer, unassigned) [Example 191]"
5,≤ 200 nM,"COc1cnc(Cl)cc1-c1cc(C)ncc1C(=O)Nc1nnc(OC2CC3(COC3)C2)s1 [Example 135, N-(5-((2-oxaspiro (3.3)heptan-6-yl)oxy)-1,3,4-thiadiazol-2-yl)-2′-chloro-5′-methoxy-6-methyl-(4,4′-bipyridine)-3-carboxamide]"
6,≤ 200 nM,"COc1cnc(Cl)cc1-c1cc(C)ncc1C(=O)Nc1nnc(O[C@H]2CCC[C@](C)(O)C2)s1 (single isomer, unassigned) [Example 181]"
7,≤ 200 nM,"COc1cnc(Cl)cc1-c1cc(C)ncc1C(=O)Nc1nnc(O[C@@H]2COC3(CCCC3)C2)s1 (single isomer, unassigned) [Example 229]"
8,≤ 200 nM,"COc1cnc(Cl)cc1-c1cc(C)ncc1C(=O)Nc1nnc(O[C@H]2CC[C@@H](OC)CC2)s1 (single isomer, unassigned) [Example 124, 2′-chloro-5′-methoxy-N-(5-(((1s,4s)-4-methoxycyclohexyl)oxy)-1,3,4-thiadiazol-2-yl)-6-methyl-(4,4′-bipyridine)-3-carboxamide]"

# Same assay, conditions: Table 5; values given as bound; Pol theta (1-899) 5 nM, ATP, dT50 ssDNA
row,Compound,IC50
1,"COc1nnc(NC(=O)c2cn(-c3cc(Cl)ncc3OC)nn2)s1 [Example 234, 1-(2-chloro-5-methoxypyridin-4-yl)-N-(5-methoxy-1,3,4-thiadiazol-2-yl)-1H-1,2,3-triazole-4-carboxamide]",> 10000 nM
2,"COc1nnc(NC(=O)c2cn3c(C)cnc3cc2-c2c(F)cccc2OC)s1 [Example 120, 7-(2-fluoro-6-methoxyphenyl)-N-(5-methoxy-1,3,4-thiadiazol-2-yl)-3-methylimidazo(1,2-a)pyridine-6-carboxamide]",> 10000 nM
3,"COc1nnc(NC(=O)c2cnc(CN3CC(OC)C3)cc2-c2cc(Cl)ncc2OC)s1 [Example 144, 2′-chloro-5′-methoxy-N-(5-methoxy-1,3,4-thiadiazol-2-yl)-6-((3-methoxyazetidin-1-yl)methyl)-(4,4′-bipyridine)-3-carboxamide]",> 10000 nM
